Test results from ChEMBL document CHEMBL1201862, “PubChem BioAssay data set” (2004).
Activity calls are given as the source filed them.

Legend:
HEK293 = assay: SAR analysis of compounds that are cytotoxic to HEK293 - Set 3. [Related pubchem assays (depositor defined):AID1575, AID1578, AID1848, AID1849, AID2001, AID2333, AID2334, AID2335, AID2337, AID2469]; assay type: functional, cell-based; conditions: Homo sapiens
[1] = target: Nucleotide-binding oligomerization domain-containing protein 2 (Homo sapiens, UniProt Q9HC29); assay: NOD2 signaling inhibitors, analog potency, SAR follow-up, cell-based, set 3 (AID 2799); assay type: functional
Bcl-2-related protein A1 [2] = target: T1, Bcl-2-related protein A1 (Mus musculus, UniProt Q07440); assay: Bfl-1 inhibitors blocking BH3 peptide binding, confirmation, biochemical, TR-FRET, mouse Bfl-1 (AID 621);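 also: TR-FRET binding of GST-Bfl-1 to FITC-labelled Bid peptide via terbium antibody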
T1 sequence (Q07440 whole entry): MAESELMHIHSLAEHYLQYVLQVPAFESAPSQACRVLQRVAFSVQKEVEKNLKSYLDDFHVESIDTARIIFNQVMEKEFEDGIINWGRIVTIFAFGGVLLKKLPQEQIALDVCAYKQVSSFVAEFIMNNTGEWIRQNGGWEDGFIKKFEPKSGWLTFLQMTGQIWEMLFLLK

[3] = target: Glyceraldehyde-3-phosphate dehydrogenase (Homo sapiens, UniProt P04406)
Tumor necrosis factor = Tumor necrosis factor (Homo sapiens, UniProt P01375); assay: TNFa-triggered NF-kB activation inhibitors, SAR follow-up, cell-based, set 3 (AID 2801); assay type: functional
Bcl-2-related protein A1 [4] = target: T1, Bcl-2-related protein A1; assay: Bfl-1 binding inhibitors, SAR follow-up, biochemical, fluorescence polarization (AID 1070)
[5] = target: Nucleotide-binding oligomerization domain-containing protein 1 (Homo sapiens, UniProt Q9Y239); assay: SAR analysis of compounds that inhibit NOD1 - Set 3. [Related pubchem assays (depositor defined):AID1566, AID1575, AID1578, AID1849, AID1852, AID2333, AID2335, AID2466]; assay type: functional
[6] = mammalian cell cytotoxicity, dose response, cytotoxicity control, plate reader, cherry-pick samples (AID 504397); assay type: functional, cell-based
CAAX prenyl protease 2 = CAAX prenyl protease 2 (Saccharomyces cerevisiae S288c, UniProt Q03530); assay type: biochemical
Chain of CAAX prenyl protease 2 (Q03530 whole entry): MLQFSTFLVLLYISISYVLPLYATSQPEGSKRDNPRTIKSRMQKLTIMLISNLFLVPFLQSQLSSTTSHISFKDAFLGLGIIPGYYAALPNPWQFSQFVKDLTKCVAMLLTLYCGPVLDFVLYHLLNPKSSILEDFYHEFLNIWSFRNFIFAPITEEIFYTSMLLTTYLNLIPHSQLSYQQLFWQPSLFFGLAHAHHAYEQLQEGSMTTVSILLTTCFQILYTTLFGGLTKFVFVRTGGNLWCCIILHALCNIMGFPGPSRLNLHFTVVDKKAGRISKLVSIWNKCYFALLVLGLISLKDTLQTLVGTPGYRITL

SUMO-activating enzyme [7] = target: T2, SUMO-activating enzyme (Homo sapiens, UniProt Q9UBT2); assay: inhibitors of in vitro SUMOylation cascade, primary screen, biochemical, HTRF, uHTS (AID 2006); assay type: protein-complex assay
T2 sequence (Q9UBE0 whole entry): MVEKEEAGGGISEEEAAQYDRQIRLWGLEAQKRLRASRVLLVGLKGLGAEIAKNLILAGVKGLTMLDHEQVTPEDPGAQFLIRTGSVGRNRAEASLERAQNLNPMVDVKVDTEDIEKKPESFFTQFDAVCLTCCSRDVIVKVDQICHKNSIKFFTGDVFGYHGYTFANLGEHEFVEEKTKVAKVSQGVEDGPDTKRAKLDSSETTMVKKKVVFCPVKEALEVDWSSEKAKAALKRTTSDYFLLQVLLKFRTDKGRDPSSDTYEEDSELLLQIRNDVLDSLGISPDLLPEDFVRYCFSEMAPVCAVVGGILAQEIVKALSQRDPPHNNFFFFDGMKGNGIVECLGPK
T2 sequence (Q9UBT2 whole entry): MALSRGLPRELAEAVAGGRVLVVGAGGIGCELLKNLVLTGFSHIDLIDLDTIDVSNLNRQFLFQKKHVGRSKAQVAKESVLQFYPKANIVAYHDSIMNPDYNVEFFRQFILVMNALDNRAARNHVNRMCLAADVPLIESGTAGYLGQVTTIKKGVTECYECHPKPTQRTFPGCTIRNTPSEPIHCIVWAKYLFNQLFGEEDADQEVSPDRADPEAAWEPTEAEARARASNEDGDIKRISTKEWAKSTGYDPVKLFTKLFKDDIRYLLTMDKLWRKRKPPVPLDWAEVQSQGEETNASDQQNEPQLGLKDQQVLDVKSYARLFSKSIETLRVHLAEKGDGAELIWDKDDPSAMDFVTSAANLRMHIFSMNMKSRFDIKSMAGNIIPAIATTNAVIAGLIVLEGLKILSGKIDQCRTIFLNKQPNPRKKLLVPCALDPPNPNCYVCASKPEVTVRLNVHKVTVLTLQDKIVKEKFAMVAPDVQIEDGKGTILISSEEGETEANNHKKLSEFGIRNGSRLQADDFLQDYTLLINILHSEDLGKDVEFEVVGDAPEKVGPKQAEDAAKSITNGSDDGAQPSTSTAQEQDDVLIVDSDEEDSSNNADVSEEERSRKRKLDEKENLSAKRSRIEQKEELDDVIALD

[8] = target: T3, Voltage-gated N-type calcium channel alpha-1B subunit/Amyloid beta A4 precursor protein-binding family A member 1 (Homo sapiens, UniProt Q00975+Q02410); assay type: protein assay
T3 sequence (Q00975 whole entry): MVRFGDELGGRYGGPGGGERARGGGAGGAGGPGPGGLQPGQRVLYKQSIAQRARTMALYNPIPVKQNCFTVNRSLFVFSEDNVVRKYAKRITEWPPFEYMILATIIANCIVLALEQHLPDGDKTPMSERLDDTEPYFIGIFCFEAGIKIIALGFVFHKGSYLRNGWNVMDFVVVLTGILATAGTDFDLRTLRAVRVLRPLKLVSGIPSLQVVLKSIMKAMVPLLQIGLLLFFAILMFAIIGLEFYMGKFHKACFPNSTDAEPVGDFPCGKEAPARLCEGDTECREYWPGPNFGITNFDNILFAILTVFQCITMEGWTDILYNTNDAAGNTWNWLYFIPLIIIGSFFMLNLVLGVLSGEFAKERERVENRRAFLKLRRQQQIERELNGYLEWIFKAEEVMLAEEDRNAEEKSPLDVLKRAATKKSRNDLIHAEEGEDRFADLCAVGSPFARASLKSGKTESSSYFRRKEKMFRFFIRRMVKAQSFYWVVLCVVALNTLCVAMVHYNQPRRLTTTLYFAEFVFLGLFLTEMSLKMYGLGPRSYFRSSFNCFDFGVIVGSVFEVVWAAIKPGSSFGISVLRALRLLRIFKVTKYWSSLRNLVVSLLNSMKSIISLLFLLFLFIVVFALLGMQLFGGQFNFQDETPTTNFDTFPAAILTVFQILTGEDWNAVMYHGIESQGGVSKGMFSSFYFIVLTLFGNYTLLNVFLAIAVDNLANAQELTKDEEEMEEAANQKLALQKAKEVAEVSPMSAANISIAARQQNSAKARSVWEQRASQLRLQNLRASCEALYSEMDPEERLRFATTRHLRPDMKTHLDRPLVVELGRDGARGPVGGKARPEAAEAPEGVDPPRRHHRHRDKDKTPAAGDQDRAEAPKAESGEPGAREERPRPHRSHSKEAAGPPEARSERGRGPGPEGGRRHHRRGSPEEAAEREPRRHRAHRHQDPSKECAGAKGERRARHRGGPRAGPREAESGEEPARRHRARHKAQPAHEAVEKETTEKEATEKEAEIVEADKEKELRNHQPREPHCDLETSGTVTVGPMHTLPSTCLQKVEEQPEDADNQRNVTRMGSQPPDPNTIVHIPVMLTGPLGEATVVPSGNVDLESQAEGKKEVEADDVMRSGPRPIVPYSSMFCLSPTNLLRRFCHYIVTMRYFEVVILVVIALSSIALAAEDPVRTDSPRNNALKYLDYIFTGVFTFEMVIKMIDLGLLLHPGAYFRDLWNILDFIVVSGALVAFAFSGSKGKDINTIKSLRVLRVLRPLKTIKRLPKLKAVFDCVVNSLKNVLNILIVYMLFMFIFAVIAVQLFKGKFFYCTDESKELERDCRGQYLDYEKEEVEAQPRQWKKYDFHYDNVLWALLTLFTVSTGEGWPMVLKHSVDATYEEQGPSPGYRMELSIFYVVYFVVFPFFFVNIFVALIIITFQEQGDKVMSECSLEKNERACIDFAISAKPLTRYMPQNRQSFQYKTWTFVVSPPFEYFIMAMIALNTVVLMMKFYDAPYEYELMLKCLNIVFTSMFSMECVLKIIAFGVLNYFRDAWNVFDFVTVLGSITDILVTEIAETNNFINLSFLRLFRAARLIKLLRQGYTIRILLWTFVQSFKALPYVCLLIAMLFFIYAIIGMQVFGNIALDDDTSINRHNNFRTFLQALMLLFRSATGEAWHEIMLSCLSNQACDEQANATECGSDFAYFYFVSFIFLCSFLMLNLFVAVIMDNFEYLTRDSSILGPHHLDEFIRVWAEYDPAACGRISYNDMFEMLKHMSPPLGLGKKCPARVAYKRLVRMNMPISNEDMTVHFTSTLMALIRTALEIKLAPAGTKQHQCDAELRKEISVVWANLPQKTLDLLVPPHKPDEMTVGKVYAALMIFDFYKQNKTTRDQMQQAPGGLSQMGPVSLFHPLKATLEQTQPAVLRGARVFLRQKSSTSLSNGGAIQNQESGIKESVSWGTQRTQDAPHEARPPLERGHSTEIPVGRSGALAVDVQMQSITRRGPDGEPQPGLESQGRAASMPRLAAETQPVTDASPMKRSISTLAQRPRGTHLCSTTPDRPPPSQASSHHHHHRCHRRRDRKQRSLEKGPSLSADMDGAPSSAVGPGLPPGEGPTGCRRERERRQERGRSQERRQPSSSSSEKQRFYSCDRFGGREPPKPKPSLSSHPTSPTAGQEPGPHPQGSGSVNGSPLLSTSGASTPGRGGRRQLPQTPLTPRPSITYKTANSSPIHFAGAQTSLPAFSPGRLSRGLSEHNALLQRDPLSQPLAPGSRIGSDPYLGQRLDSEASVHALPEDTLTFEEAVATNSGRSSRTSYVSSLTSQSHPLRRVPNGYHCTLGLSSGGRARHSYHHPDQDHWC
T3 sequence (Q02410 whole entry): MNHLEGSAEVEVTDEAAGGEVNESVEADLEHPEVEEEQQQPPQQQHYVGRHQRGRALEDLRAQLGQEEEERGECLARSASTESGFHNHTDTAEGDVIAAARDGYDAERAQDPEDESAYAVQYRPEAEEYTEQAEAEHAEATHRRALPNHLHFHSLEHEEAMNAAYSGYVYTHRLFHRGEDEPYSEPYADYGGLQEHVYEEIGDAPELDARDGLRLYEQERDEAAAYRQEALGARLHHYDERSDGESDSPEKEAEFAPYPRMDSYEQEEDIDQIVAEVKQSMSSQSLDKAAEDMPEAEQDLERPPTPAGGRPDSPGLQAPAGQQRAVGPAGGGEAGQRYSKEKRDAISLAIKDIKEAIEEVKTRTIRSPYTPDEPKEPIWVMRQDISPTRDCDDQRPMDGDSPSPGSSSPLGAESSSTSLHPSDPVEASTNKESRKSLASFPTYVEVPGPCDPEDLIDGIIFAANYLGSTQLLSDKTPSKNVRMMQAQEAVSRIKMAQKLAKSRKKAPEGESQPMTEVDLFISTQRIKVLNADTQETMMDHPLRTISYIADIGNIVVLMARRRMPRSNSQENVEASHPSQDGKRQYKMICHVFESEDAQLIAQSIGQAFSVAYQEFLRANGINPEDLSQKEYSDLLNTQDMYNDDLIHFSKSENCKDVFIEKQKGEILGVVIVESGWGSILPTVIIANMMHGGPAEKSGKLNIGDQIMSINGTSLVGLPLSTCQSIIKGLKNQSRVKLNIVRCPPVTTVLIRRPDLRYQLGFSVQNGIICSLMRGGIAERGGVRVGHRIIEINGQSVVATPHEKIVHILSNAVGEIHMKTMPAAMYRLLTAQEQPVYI

Hexokinase HKDC1 = target: T4, Hexokinase HKDC1 (Homo sapiens, UniProt Q2TB90); assay: HKDC1 hexokinase activators, dose response, biochemical, W721R variant (AID 504730); assay type: functional
T4 sequence (Q2TB90 whole entry): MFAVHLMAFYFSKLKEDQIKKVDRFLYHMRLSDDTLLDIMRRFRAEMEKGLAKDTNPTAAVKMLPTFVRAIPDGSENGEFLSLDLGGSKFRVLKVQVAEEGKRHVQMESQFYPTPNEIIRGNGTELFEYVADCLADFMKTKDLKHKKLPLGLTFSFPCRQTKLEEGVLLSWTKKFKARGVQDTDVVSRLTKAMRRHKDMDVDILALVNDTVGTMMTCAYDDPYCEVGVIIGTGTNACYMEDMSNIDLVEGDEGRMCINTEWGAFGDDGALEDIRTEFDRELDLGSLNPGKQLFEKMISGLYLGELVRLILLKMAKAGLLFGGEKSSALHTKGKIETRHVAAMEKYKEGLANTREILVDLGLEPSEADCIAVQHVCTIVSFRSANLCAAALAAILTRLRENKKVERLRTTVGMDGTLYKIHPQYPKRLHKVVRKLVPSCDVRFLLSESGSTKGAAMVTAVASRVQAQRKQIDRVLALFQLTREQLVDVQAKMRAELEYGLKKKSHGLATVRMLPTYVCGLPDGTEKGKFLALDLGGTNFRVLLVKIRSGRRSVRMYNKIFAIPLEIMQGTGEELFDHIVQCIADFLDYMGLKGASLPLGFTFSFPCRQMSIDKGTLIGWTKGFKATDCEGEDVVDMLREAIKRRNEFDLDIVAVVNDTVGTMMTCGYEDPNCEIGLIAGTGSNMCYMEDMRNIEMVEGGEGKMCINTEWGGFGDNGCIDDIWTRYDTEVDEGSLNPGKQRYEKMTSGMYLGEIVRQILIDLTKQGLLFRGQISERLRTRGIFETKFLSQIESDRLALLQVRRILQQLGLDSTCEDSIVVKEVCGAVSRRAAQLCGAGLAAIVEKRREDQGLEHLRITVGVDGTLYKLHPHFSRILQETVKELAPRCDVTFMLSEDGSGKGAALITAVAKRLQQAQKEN

SUMO-activating enzyme [9] = target: T2, SUMO-activating enzyme; assay: SUMOylation inhibitor hit validation, confirmation, SUMOylation inhibitor project, biochemical, AlphaScreen (AID 2018); assay type: functional
[10] = target: T3, Voltage-gated N-type calcium channel alpha-1B subunit/Amyloid beta A4 precursor protein-binding family A member 1; assay type: protein assay; remark: listed apart in the source
[11] = target: Intestinal-type alkaline phosphatase (Mus musculus, UniProt P24822); assay: PubChem AID 488785; assay type: functional
[12] = target: T5, Alkaline phosphatase, tissue-nonspecific isozyme (Homo sapiens, UniProt P05186); assay: TNAP enzyme inhibition by screening hits, dose response, selectivity assay for mouse IAP inhibitor project, biochemical, human TNAP, uHTS hits (AID 488906); assay type: functional
T5 sequence (P05186 whole entry): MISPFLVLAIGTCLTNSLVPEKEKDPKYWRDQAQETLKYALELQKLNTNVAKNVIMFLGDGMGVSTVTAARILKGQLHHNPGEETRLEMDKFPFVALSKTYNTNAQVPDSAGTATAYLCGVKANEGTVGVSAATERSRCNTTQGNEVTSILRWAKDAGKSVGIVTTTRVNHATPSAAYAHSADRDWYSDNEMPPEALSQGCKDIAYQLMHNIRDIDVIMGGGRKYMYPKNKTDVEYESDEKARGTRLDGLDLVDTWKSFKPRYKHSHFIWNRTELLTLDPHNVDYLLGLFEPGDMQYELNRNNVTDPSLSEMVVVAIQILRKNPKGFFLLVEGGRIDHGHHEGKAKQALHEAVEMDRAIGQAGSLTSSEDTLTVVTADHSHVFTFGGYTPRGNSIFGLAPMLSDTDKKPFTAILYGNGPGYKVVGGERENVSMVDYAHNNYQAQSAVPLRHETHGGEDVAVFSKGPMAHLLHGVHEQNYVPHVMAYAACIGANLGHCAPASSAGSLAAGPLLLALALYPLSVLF

[13] = target: Intestinal-type alkaline phosphatase (Homo sapiens, UniProt P09923); assay: inhibition of human intestinal alkaline phosphatase – biochemical, dose response (AID 488876); assay type: functional
[14] = target: T6, Dual specificity protein phosphatase 3 (Homo sapiens, UniProt P51452); assay: VHR1 phosphatase inhibitors, primary screen, biochemical, absorbance, uHTS (AID 1654)
T6 sequence (P51452 whole entry): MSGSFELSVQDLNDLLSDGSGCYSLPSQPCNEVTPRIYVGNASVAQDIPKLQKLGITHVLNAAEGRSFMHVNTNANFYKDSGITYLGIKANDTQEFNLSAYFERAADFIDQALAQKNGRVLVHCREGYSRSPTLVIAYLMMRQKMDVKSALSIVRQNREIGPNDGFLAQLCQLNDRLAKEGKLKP

[15] = target: Dual specificity protein phosphatase 6 (Rattus norvegicus, UniProt Q64346); assay: MKP-3 phosphatase inhibitors, primary screen, biochemical, rat enzyme, in vitro (AID 425)
[16] = target: T6, Dual specificity protein phosphatase 3; assay: VHR1 phosphatase inhibitors, biochemical (AID 1878)
[17] = target: T7, Kappa-type opioid receptor (Homo sapiens, UniProt P41145); assay: SAR analysis of small molecule agonists of the kappa opioid receptor via a luminescent beta-arrestin assay - Set 3. [Related pubchem assays (depositor defined):AID1777, AID1785, AID1786, AID1966, AID2133, AID2136, AID2284, AID2500]; assay type: functional
T7 sequence (P41145 whole entry): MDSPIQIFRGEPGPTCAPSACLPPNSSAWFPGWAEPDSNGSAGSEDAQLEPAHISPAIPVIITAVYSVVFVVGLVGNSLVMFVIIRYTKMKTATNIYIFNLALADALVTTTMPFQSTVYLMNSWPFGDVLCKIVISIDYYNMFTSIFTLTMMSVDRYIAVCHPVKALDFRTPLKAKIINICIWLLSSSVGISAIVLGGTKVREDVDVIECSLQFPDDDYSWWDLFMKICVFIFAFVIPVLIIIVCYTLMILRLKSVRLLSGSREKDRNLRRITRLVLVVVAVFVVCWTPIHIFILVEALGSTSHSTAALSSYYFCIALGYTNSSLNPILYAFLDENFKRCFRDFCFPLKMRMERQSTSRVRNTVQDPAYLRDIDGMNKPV

[18] = target: Delta-type opioid receptor (Homo sapiens, UniProt P41143); assay: SAR Analysis of Agonists of the DOR Receptor using an Image-Based Assay - Set 3. [Related pubchem assays (depositor defined):AID1777, AID1786]; assay type: functional
Mu-type opioid receptor = Mu-type opioid receptor (Homo sapiens, UniProt P35372); assay: SAR Analysis of Agonists of the MOR Receptor using an Image-Based Assay - Set 3. [Related pubchem assays (depositor defined):AID1777, AID1785, AID1786, AID1966, AID2133, AID2136, AID2284, AID2285, AID2352]; assay type: functional
[19] = target: T7, Kappa-type opioid receptor; assay: KOR agonist analogs, arrestin-GFP redistribution, SAR follow-up, imaging, image-based, set 3 (AID 488833); assay type: functional
[20] = target: Voltage-dependent T-type calcium channel subunit alpha-1H (Homo sapiens, UniProt O95180); assay: Cav3.2 T-type channel blockers, cell-based, SynthLib3 library, HEK293 Cav3.2, fluorescence (AID 493041); assay type: functional
Vero = assay: cells; assay type: functional; conditions: Chlorocebus sabaeus
[21] = Counterscreen for AddAB inhibitors: absorbance-based bacterial cell-based high throughput dose response assay for inhibitors of bacterial viability. [Related pubchem assays (depositor defined):AID435030, AID449728, AID449731, AID488942, AID488955, AID488956]; assay type: functional
Exodeoxyribonuclease V = Exodeoxyribonuclease V (Escherichia coli (strain K12), UniProt P04993+P07648+P08394); assay: E. coli RecBCD inhibitors, dose response, counter-screen for AddAB inhibitor project, absorbance, V66 E. coli, mutant T4 phage (AID 492957); assay type: functional, cell-based, Escherichia coli str. K-12 substr. MG1655
[22] = cytotoxicity toward NIH3T3 fibroblasts, dose response, counter-screen, cell-based, ATP luminescence, mouse fibroblasts (AID 2010); assay type: functional;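 also: cells exposed to compound for about 90 hours before reading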
[23] = inhibitors of intracellular T. cruzi replication, confirmation, NIH3T3 host cells, beta-gal luminescence (AID 2044); assay type: functional, cell-based;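 also: intracellular parasites grown in NIH/3T3 mouse fibroblasts as host cells; luminescent beta-galactosidase reporter signal from transgenic T. cruzi replicating inside host cells; inhibitors lower the luminescence signal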

COc1ccc(-c2cc(N)n(S(=O)(=O)c3ccc(Cl)cc3)n2)cc1OC
IC50 (HEK293): > 20 µM (inactive)
IC50 [1]: > 20 µM (inactive)
IC50 (Bcl-2-related protein A1 [2]): > 100 µM (not active)
IC50 [3]: > 100 µM (not active)
IC50 (Tumor necrosis factor): > 20 µM (inactive)
IC50 (Bcl-2-related protein A1 [4]): > 100 µM (not active)
IC50 [5]: > 20 µM (inactive)

CC(=O)N(C)c1ccc(NC(=O)/C=C/c2ccccc2Cl)cc1
AC50 [6]: > 350 µM (inactive)
AC50 (CAAX prenyl protease 2): 2.06 µM (active)

CCOc1ccc(/C=C2/SC(=S)N(CCC(=O)Nc3ccc(C(=O)O)cc3)C2=O)cc1
IC50 (SUMO-activating enzyme [7]): 23.6 µM (active)
IC50 [8]: 5.5 µM (active)
EC50 (Hexokinase HKDC1): > 80 µM (inactive)
IC50 (SUMO-activating enzyme [9]): 16.8 µM (active)
IC50 [10]: > 50 µM (inactive)

S=C(NCCC(c1ccccc1)c1ccccc1)Nc1ccc(Cl)cc1
IC50 [11]: 9.61 µM (active)
IC50 [12]: > 100 µM (inactive)
IC50 [13]: > 100 µM (inactive)

Cc1ccc(NC(=O)Cn2c(O)c(N=NC(=O)c3cc([N+](=O)[O-])ccc3O)c3ccccc32)cc1
IC50 [14]: 12.9 µM (active)
IC50 [15]: 31 µM (active)
IC50 [16]: 6.94 µM (active)

FC(F)(F)c1ccc(CSc2nnc(-c3ccccn3)n2Cc2ccco2)cc1
EC50 [17]: 2.77 µM (active)
EC50 [18]: > 64 µM (inactive)
EC50 (Mu-type opioid receptor): > 32 µM (inactive)
EC50 [19]: 1.22 µM (active)

CC(C)CCN1CCC[C@H](NC(=O)COc2ccc(F)c(Cl)c2)C1
EC50 [20]: 10 µM (active)

O=C(NCc1ccco1)c1ccc([N+](=O)[O-])o1
IC50 [8]: 4.6 µM (active)
CC50 (Vero): 22.8 µM (active)
IC50 [21]: > 39.5 µM (inactive)
IC50 (Exodeoxyribonuclease V): 113 µM (inactive)
IC50 [10]: 34.6 µM (active)
EC50 [22]: > 60 µM (not active)
EC50 [23]: 0.128 µM (active)
